Several values for one entry are separate records, joined by “and”; a condition that tells them apart may be missing. Identical values can stand only once.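 Each compound was tested at five concentrations against cells in 96-well plates for 48 hours. Abbreviation: GI50, concentration required for 50% inhibition of growth. At the TGI there is no net growth.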

For one assay, the system named is HCC-2998 colon. The assay is described as follows: inhibition of tumour cell growth, NCI panel, 48 h.
Molecule `O=C1CC(c2c[nH]c3ccccc23)C(=O)N1` (configuration not stated) displayed a TGI greater than 100000 nM.

In turn, `COc1cc2c(c(OC)c1OC)-c1ccc(SC)c(=O)cc1C(NC(=O)c1ccccc1)CC2` (configuration not stated) yielded a TGI of 144 nM.

A further assay relates to M14 melanoma. The experiment in a line: inhibition of tumour cell growth, NCI panel, 48 h.
Turning to `COc1cc(N2C(=O)[C@H](O)C2c2ccc(SC)cc2)cc(OC)c1OC` (some centres not stated), the GI50 is less than 10 nM and the TGI was determined as 0.0198 µM.

As to `CCC(=O)C12OC3OC(C)(C)OC3C1OC(C)(C)O2` (configuration not stated), the TGI is greater than 100 µM.

Take `O=C1OCC2=C1C(c1ccc(Cl)c(Cl)c1)c1cc3c(cc1N2CCO)OCCO3` (configuration not stated): the GI50 was 264 nM and the TGI was 5.65 µM.

`CC/C=C\C/C=C\C/C=C\CCCCCCCC(=O)OCC(O)CO` (configuration not stated) returned a TGI greater than 81.9 µM.

`Cc1cccc(C)c1NC(=O)/C(=N/NC(N)=S)C(C)C(=O)c1ccc(Cl)cc1` (configuration not stated) yielded a TGI greater than 100 µM.

The molecule `N#CC(C#N)=C1NC(=O)CC(=O)N1` displayed a TGI greater than 100 µM.

Consider `Nc1nc(OCc2ccccc2)c2[nH]cnc2n1`, for which the GI50 was 25600 nM and 26500 nM; the TGI was 204 µM and 116 µM.

As for `COc1cc2nc(N3CCCC3)nc(NCCc3ccccc3)c2cc1OC`, the GI50 was 1800 nM and the TGI was 3.69 µM.

As to `COc1cc(C(=O)C/C(CCC(=O)Nc2ccccc2[N+](=O)[O-])=N\NC(N)=O)ccc1O`, the TGI is greater than 100 µM.

Consider `C1CCC([PH+](C2CCCCC2)C2CCCCC2[PH+](C2CCCCC2)C2CCCCC2)CC1.[Au].[CH-]1CCCCC1CC1CCCC[N-]1` (configuration not stated), for which the GI50 is 297 nM and the TGI came to 1.27 µM.

`COc1ccc(-c2[nH]c3ccccc3c2-c2ccc(OC)cc2)cc1`: the GI50 is 3900 nM and the TGI stood at 14.8 µM.

`O=C(/C=C\c1cccc([N+](=O)[O-])c1)/C=C/c1cccc([N+](=O)[O-])c1`: the GI50 was 2490 nM and the TGI amounted to 7.33 µM.

As to `O=C1c2cccnc2C(=O)c2c1c(C(=O)NCCCN1CCCCC1)c1ccccn21`, the GI50 was 1150 nM and the TGI amounted to 2.44 µM.

Take `Cc1ccc2c(C3Cc4ccccc4N3C(=O)/C=C\C(=O)O)c(C)[nH]c2c1` (configuration not stated): the TGI was greater than 100 µM.

As to `O=C(Nc1ccc(OCc2nnc(-c3ccc(Cl)cc3)o2)c(F)c1)Nc1ccc(Cl)c(C(F)(F)F)c1`, the GI50 is 2230 nM and the TGI came out at 11.7 µM.

Regarding `COC(=O)C1CC2CC(=NNC(N)=O)CC2C1` (configuration not stated), the TGI was greater than 100 µM.

As to `O=C1CC(c2c[nH]c3ccccc23)C(=O)N1` (configuration not stated), the TGI is greater than 100 µM.

`COc1cc2c(c(OC)c1OC)-c1ccc(SC)c(=O)cc1C(NC(=O)c1ccccc1)CC2` (configuration not stated) gave a TGI of 30.3 µM.

Regarding `CCOC(=O)C1=C(C)N(c2ccc(Cl)cc2)[C@]2(C#N)C(O)=C(Cl)C(Cl)=C(O)[C@]12C#N`, the GI50 was 49700 nM and the TGI is greater than 100 µM.

Another assay relates to NCI-H226 lung. The experiment in a line: inhibition of tumour cell growth, NCI panel, 48 h.
As to `COc1cc(N2C(=O)[C@H](O)C2c2ccc(SC)cc2)cc(OC)c1OC` (some centres not stated), the GI50 was less than 0.01 µM and the TGI was greater than 100 µM.

`CCC(=O)C12OC3OC(C)(C)OC3C1OC(C)(C)O2` (configuration not stated) registered a TGI greater than 100 µM.

Turning to `O=C1OCC2=C1C(c1ccc(Cl)c(Cl)c1)c1cc3c(cc1N2CCO)OCCO3` (configuration not stated), the GI50 is 0.29 µM and the TGI was 7.71 µM.

In the case of `O=C(/C=C/c1cc2ccccc2[nH]c1=O)/C=C/c1cc2ccccc2[nH]c1=O`, the GI50 was 14.9 µM and the TGI was 38.1 µM.

Molecule `CC/C=C\C/C=C\C/C=C\CCCCCCCC(=O)OCC(O)CO` (configuration not stated) yielded a TGI greater than 100 µM.

As for `Cc1cccc(C)c1NC(=O)/C(=N/NC(N)=S)C(C)C(=O)c1ccc(Cl)cc1` (configuration not stated), the TGI is greater than 100 µM.

As for `N#CC(C#N)=C1NC(=O)CC(=O)N1`, the TGI is greater than 100 µM.

As to `Nc1nc(OCc2ccccc2)c2[nH]cnc2n1`, the GI50 is 36.8 µM and 16.3 µM; the TGI was 119 µM and 82 µM.

Regarding `COc1cc2nc(N3CCCC3)nc(NCCc3ccccc3)c2cc1OC`, the GI50 is 11.4 µM and the TGI was 34 µM.

`COc1cc(C(=O)C/C(CCC(=O)Nc2ccccc2[N+](=O)[O-])=N\NC(N)=O)ccc1O`: the TGI was greater than 100 µM.

For the molecule `C1CCC([PH+](C2CCCCC2)C2CCCCC2[PH+](C2CCCCC2)C2CCCCC2)CC1.[Au].[CH-]1CCCCC1CC1CCCC[N-]1` (configuration not stated), the GI50 was 0.561 µM and the TGI was 2.7 µM.

Take `O=C(/C=C\c1cccc([N+](=O)[O-])c1)/C=C/c1cccc([N+](=O)[O-])c1`: the GI50 is 15.4 µM and the TGI was greater than 100 µM.

In turn, `Cc1ccc2c(C3Cc4ccccc4N3C(=O)/C=C\C(=O)O)c(C)[nH]c2c1` (configuration not stated) registered a TGI greater than 100 µM.

`O=C(Nc1ccc(OCc2nnc(-c3ccc(Cl)cc3)o2)c(F)c1)Nc1ccc(Cl)c(C(F)(F)F)c1`: the GI50 is 2.84 µM and the TGI came out at 13.2 µM.

Turning to `O=C1CC(c2c[nH]c3ccccc23)C(=O)N1` (configuration not stated), the TGI is greater than 100 µM.

Take `CCOC(=O)C1=C(C)N(c2ccc(Cl)cc2)[C@]2(C#N)C(O)=C(Cl)C(Cl)=C(O)[C@]12C#N`: the GI50 is greater than 100 µM and the TGI was greater than 100 µM.

The next assay has as its system OVCAR-4 ovarian. The assay is described as follows: inhibition of tumour cell growth, NCI panel, 48 h.
Consider `COc1cc(N2C(=O)[C@H](O)C2c2ccc(SC)cc2)cc(OC)c1OC` (some centres not stated), for which the GI50 was 0.0275 µM and the TGI is greater than 100 µM.

Regarding `CCC(=O)C12OC3OC(C)(C)OC3C1OC(C)(C)O2` (configuration not stated), the TGI is greater than 100 µM.

For `O=C1OCC2=C1C(c1ccc(Cl)c(Cl)c1)c1cc3c(cc1N2CCO)OCCO3` (configuration not stated), the GI50 is 0.382 µM and the TGI was greater than 50 µM.

Regarding `O=C(/C=C/c1cc2ccccc2[nH]c1=O)/C=C/c1cc2ccccc2[nH]c1=O`, the GI50 was 19.2 µM and the TGI was greater than 100 µM.

In the case of `CC/C=C\C/C=C\C/C=C\CCCCCCCC(=O)OCC(O)CO` (configuration not stated), the TGI was greater than 100 µM.

Consider `Cc1cccc(C)c1NC(=O)/C(=N/NC(N)=S)C(C)C(=O)c1ccc(Cl)cc1` (configuration not stated), for which the TGI is greater than 100 µM.

For `N#CC(C#N)=C1NC(=O)CC(=O)N1`, the TGI was greater than 100 µM.

Consider `Nc1nc(OCc2ccccc2)c2[nH]cnc2n1`, for which the GI50 was 41.2 µM and 43.4 µM; the TGI was 365 µM and 528 µM.

On to `COc1cc2nc(N3CCCC3)nc(NCCc3ccccc3)c2cc1OC`, for which the GI50 was 1.76 µM and the TGI came to 3.71 µM.

In the case of `COc1ccc(-c2[nH]c3ccccc3c2-c2ccc(OC)cc2)cc1`, the GI50 was 7.66 µM and the TGI was 23.6 µM.

(Values after PubChem BioAssay (NCI).)
